Publication PMC4639830, “Inhibition of DYRK1A and GSK3B induces human β-cell proliferation” (Nature Communications, 2015)

Experiments:
Assay in all cases: Kinase profiling
Format in all cases: biochemical
[1] = biological target: T1, Axl (Homo sapiens, UniProt P30530); conditions: read-out: Percent inhibition, Axl; for inhibition at 1 µM: Conc 1000 nM
T1 construct: purchased Ambit KINOMEscan
T1 sequence (P30530 26-894): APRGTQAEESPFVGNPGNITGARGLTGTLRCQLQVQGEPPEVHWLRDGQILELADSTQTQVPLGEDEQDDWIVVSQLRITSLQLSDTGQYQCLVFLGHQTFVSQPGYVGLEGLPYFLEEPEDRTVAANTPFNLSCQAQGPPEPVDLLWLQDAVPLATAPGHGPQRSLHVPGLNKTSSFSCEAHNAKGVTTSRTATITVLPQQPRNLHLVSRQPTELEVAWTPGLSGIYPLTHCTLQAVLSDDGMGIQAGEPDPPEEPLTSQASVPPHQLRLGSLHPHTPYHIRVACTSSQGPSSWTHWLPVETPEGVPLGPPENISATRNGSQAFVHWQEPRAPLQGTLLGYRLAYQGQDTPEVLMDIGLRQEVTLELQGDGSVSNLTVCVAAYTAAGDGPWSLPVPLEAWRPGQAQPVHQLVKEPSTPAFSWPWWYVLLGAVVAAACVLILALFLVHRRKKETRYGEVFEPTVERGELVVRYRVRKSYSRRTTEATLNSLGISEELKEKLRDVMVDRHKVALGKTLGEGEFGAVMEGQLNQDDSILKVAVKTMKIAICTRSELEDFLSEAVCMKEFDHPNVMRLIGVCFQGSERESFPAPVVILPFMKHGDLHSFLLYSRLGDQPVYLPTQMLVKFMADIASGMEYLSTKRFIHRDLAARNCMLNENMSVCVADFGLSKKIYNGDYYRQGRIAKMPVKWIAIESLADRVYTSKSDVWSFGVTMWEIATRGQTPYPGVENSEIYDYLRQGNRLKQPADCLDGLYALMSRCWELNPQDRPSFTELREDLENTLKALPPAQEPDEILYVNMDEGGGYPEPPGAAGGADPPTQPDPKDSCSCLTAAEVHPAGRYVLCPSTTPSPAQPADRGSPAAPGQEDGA
Text: (§1) ; Fig. 5a; Supplementary Table 1). We focused on Dyrk1a because other kinases inhibited by aminopyrazine compounds were not highly expressed in β-cells and because Dyrk1a was known to inhibit the NFAT pathway that was previously implicated in β-cell proliferation. We used molecular modelling to dock the aminopyrazine compounds into the published structure of Dyrk1a (protein databank accession code 2vx3.pdb; Fig. 5b).

[2] = biological target: T2, p38delta (MAPK13) (Homo sapiens, UniProt O15264); conditions: Conc 1000 nM; read-out: Percent inhibition, p38delta (MAPK13)
T2 construct: purchased Ambit (KINOMEscan)
Text: as §1

[3] = biological target: T3, ROCK1 (Homo sapiens, UniProt Q13464); conditions: Conc 1000 nM; read-out: Percent inhibition, ROCK1
T3 construct: purchased Ambit (KINOMEscan)
Text: as §1

[4] = biological target: T4, TRKA (NTRK1) (Homo sapiens, UniProt P04629); conditions: read-out: Percent inhibition, TRKA (NTRK1); for inhibition at 1 µM: Conc 1000 nM
T4 construct: purchased Ambit (KINOMEscan)
Text: as §1

[5] = biological target: T5, CSK (Homo sapiens, UniProt P41240); conditions: Conc 1000 nM; read-out: Percent inhibition, CSK
T5 construct: purchased Ambit KINOMEscan
Text: as §1

[6] = biological target: T6, IKKb (Homo sapiens, UniProt O14920); conditions: Conc 1000 nM; read-out: Percent inhibition, IKKb
T6 construct: purchased Ambit KINOMEscan
Text: as §1

[7] = biological target: T7, FMS (CSF1R) (Homo sapiens, UniProt P07333); conditions: Conc 1000 nM; read-out: Percent inhibition, FMS (CSF1R)
T7 construct: purchased Ambit KINOMEscan
Text: as §1

[8] = biological target: T8, TYRO3 (Homo sapiens, UniProt Q06418); conditions: Conc 1000 nM; read-out: Percent inhibition, TYRO3
T8 construct: purchased Ambit (KINOMEscan)
Text: as §1

[9] = biological target: T9, PDGFRb (Homo sapiens, UniProt P09619); conditions: read-out: Percent inhibition, PDGFRb; for inhibition at 1 µM: Conc 1000 nM
T9 construct: purchased Ambit (KINOMEscan)
Text: as §1

[10] = biological target: T10, AURORA-A (Homo sapiens, UniProt O14965); conditions: read-out: Percent inhibition, AURORA-A; for inhibition at 1 µM: Conc 1000 nM
T10 construct: purchased Ambit KINOMEscan
T10 sequence (O14965 1-403): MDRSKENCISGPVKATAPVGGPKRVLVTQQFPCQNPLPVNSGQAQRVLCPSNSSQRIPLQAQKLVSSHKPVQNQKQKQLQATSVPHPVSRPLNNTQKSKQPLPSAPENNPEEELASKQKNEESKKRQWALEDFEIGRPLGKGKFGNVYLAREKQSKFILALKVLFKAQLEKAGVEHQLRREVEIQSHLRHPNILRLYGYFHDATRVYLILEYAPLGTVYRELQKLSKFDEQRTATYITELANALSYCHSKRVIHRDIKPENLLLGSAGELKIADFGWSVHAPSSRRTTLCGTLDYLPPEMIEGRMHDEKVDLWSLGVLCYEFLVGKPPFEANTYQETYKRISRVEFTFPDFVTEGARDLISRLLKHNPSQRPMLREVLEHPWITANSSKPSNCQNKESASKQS
Text: as §1

[11] = biological target: T11, NEK2 (Homo sapiens, UniProt P51955); conditions: Conc 1000 nM; read-out: Percent inhibition, NEK2
T11 construct: purchased Ambit (KINOMEscan)
Text: as §1

[12] = biological target: T12, CK1a (Homo sapiens, UniProt P48729); conditions: Conc 1000 nM; read-out: Percent inhibition, CK1a
T12 construct: purchased Ambit KINOMEscan
Text: as §1

[13] = biological target: T13, PIM-2 (Homo sapiens, UniProt Q9P1W9); conditions: Conc 1000 nM; read-out: Percent inhibition, PIM-2
T13 construct: purchased Ambit (KINOMEscan)
Text: as §1

[14] = biological target: T14, c-Kit (Homo sapiens, UniProt P10721); conditions: Conc 1000 nM; read-out: Percent inhibition, c-Kit
T14 construct: purchased Ambit KINOMEscan
Text: as §1

[15] = biological target: T15, ALK (Homo sapiens, UniProt Q9UM73); conditions: read-out: Percent inhibition, ALK; for inhibition at 1 µM: Conc 1000 nM
T15 construct: purchased Ambit KINOMEscan
Text: as §1

[16] = biological target: T16, bRAF (Homo sapiens, UniProt P15056); conditions: Conc 1000 nM; read-out: Percent inhibition, bRAF
T16 construct: purchased Ambit KINOMEscan
Text: as §1

[17] = biological target: T17, SRC (Homo sapiens, UniProt P12931); conditions: Conc 1000 nM; read-out: Percent inhibition, SRC
T17 construct: purchased Ambit (KINOMEscan)
Text: as §1

[18] = biological target: T18, cRAF (Homo sapiens, UniProt P04049); conditions: Conc 1000 nM; read-out: Percent inhibition, cRAF
T18 construct: purchased Ambit KINOMEscan
Text: as §1

T9 sequence (P09619 33-1106): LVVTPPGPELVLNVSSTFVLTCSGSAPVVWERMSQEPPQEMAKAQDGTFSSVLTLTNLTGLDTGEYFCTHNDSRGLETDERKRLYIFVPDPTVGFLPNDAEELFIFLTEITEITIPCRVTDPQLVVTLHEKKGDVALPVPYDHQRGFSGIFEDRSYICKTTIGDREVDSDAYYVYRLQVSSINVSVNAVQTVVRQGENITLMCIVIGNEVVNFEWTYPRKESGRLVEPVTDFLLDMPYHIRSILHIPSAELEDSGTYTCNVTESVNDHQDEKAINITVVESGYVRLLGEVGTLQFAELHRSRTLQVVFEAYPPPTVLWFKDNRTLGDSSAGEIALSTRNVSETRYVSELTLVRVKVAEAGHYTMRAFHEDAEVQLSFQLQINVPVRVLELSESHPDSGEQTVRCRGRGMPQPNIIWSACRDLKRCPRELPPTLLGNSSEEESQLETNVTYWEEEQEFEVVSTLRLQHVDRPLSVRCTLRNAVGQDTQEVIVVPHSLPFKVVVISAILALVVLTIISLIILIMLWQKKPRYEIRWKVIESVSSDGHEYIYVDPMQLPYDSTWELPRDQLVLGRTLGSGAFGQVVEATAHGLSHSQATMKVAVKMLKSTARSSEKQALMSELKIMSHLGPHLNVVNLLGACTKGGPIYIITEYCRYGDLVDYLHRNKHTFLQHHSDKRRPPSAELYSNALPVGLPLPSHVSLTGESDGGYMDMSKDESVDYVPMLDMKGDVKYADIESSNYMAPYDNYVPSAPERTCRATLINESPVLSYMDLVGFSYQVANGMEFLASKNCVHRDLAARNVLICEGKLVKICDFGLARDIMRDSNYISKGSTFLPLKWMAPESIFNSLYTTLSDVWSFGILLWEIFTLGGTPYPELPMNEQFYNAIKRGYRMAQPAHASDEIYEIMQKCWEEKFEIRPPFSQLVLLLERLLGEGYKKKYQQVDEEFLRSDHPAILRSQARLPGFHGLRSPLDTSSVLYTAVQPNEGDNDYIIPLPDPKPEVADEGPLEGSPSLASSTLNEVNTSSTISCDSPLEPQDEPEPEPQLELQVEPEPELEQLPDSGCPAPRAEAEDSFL
T4 sequence (P04629 33-796): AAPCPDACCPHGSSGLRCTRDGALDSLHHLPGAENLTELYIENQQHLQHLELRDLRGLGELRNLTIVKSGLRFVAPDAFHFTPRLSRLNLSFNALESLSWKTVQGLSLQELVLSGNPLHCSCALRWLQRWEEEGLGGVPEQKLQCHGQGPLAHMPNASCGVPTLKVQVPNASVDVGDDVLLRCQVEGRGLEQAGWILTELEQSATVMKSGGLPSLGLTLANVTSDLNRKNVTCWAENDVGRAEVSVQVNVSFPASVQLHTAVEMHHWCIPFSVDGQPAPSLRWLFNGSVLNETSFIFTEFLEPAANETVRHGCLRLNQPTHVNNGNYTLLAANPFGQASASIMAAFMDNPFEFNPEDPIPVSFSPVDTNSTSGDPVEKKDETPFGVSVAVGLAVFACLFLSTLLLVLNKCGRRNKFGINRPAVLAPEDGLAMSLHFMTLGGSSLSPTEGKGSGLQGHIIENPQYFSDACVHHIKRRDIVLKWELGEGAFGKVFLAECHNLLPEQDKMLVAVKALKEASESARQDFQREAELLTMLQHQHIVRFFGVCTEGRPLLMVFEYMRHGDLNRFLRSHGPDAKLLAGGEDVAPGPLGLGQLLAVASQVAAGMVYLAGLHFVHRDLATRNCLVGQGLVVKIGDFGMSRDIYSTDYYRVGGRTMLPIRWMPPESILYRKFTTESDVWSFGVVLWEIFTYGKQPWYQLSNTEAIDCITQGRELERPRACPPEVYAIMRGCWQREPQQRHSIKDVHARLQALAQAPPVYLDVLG
T15 sequence (Q9UM73 19-1620): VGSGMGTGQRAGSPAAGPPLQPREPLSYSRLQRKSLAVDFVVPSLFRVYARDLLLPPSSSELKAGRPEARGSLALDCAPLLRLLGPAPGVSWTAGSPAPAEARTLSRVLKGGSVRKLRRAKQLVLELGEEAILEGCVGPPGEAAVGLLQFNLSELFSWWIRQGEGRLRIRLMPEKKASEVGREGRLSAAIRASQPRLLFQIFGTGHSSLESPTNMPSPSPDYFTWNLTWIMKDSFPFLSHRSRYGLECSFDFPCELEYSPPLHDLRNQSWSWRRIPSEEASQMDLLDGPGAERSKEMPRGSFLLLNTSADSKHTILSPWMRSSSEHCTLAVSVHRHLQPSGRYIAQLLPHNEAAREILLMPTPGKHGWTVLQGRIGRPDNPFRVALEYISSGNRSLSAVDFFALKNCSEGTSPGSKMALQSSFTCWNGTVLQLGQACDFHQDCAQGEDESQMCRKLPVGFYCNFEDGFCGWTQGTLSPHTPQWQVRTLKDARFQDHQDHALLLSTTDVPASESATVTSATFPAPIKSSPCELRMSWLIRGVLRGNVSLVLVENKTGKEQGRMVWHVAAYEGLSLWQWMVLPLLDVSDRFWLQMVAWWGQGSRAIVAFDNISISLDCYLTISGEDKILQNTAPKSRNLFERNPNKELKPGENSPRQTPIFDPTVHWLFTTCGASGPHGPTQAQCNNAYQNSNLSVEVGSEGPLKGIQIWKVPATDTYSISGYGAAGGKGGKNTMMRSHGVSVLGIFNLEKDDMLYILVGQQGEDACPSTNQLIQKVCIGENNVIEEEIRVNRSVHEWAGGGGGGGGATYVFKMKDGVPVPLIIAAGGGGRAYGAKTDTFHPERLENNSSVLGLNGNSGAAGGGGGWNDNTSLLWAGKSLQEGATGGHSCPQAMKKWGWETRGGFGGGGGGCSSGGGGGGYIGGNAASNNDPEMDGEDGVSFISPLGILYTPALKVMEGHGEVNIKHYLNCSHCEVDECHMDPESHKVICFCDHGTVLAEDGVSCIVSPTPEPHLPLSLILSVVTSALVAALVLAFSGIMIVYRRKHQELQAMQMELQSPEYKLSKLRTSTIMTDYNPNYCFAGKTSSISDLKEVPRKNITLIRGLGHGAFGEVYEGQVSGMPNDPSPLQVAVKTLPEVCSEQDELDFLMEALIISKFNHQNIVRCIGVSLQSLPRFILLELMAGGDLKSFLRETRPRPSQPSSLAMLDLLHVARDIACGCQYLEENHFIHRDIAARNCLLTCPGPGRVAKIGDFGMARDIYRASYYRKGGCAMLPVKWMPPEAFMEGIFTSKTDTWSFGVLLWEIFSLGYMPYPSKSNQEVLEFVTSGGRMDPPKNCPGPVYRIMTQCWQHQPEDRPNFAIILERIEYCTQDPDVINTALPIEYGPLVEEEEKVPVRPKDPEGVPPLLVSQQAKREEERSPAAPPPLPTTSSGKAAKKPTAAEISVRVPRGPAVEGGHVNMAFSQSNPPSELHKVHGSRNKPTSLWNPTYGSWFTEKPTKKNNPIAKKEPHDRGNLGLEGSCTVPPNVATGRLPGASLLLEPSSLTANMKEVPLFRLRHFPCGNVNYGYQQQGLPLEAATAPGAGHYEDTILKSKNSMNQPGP
T14 sequence (P10721 26-976): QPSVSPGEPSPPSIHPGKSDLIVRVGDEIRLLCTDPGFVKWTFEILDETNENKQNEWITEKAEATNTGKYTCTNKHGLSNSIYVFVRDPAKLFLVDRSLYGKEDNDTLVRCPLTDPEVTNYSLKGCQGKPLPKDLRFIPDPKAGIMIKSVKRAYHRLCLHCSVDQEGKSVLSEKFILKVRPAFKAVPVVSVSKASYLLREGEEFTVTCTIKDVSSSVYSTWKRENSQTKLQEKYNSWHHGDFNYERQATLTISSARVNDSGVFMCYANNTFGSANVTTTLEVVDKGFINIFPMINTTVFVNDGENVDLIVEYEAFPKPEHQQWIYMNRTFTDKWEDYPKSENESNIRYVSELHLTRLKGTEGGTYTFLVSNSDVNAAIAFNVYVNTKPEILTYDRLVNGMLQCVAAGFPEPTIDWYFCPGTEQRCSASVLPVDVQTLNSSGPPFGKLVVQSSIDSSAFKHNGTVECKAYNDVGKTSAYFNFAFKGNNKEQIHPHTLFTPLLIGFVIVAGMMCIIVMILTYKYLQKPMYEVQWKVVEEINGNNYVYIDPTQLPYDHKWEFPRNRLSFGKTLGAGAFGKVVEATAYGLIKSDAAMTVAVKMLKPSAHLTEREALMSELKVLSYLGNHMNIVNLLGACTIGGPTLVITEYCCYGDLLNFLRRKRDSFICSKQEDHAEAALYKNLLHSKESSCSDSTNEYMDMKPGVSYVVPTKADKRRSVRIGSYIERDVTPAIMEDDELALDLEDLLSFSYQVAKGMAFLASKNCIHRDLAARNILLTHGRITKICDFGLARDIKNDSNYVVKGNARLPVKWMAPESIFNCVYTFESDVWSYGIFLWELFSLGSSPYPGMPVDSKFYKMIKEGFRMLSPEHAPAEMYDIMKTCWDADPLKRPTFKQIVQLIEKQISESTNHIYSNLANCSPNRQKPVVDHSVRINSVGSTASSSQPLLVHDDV
T13 sequence (Q9P1W9 whole entry): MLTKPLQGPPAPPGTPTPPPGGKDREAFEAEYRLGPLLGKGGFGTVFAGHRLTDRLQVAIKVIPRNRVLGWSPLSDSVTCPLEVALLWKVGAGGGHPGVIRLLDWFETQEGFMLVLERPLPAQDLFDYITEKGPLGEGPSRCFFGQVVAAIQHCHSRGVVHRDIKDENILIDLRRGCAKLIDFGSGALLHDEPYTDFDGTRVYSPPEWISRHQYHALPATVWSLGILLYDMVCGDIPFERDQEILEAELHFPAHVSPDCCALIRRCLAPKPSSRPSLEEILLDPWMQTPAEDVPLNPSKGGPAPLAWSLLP
T2 sequence (O15264 whole entry): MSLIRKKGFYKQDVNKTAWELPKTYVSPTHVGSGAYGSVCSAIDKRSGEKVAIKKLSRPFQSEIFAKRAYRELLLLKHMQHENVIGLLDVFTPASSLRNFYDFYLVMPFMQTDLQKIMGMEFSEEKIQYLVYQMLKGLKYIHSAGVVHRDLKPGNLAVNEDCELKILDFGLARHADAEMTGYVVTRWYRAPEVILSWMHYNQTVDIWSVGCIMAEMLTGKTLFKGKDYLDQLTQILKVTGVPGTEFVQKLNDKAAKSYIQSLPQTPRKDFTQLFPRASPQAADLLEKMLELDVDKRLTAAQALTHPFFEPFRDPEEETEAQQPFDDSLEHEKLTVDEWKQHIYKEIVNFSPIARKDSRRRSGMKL

| Structure (SMILES) | inhibition at 1 µM [1] | inhibition at 1 µM [2] | inhibition at 1 µM [3] | inhibition at 1 µM [4] | inhibition at 1 µM [5] | inhibition at 1 µM [6] | inhibition at 1 µM [7] | inhibition at 1 µM [8] | inhibition at 1 µM [9] | inhibition at 1 µM [10] | inhibition at 1 µM [11] | inhibition at 1 µM [12] | inhibition at 1 µM [13] | inhibition at 1 µM [14] | inhibition at 1 µM [15] | inhibition at 1 µM [16] | inhibition at 1 µM [17] | inhibition at 1 µM [18] | other results |
| --- | --- | --- | --- | --- | --- | --- | --- | --- | --- | --- | --- | --- | --- | --- | --- | --- | --- | --- | --- |
| CC(C)Oc1ccc(F)c(-c2cnc(N)c(C(=O)Nc3cnccc3N3CCC[C@@H](C(=O)O)C3)n2)c1 [GNF4877] | 94% | 13% | 36% | 80% | 54% | -1% | 72% | 46% | 94% | 84% | 0% | 89% | 31% | 77% | 96% | 20% | 64% | 18% | inhibition at 0.2 µM ([1]; Conc 200 nM): 74%; inhibition at 0.2 µM ([4]; Conc 200 nM): 19%; inhibition at 0.2 µM ([9]; Conc 200 nM): 0%; inhibition at 0.2 µM ([10]; Conc 200 nM): 0%; inhibition at 0.2 µM ([15]; Conc 200 nM): 35% |
| Nc1ncc(-c2ccccc2)nc1C(=O)Nc1cnccc1N1CCC(C(=O)O)CC1 [GNF7156] | 88% | 10% | 9% | 92% | 29% | 8% | 78% | 52% | 94% | 95% | 3% | 42% | 60% | 49% | 71% | 46% | 61% | 17% | – |
